The text below walks through data of patent US20260218121A1, “METHODS FOR CELL SURFACE REMODELING” (NANTES UNIVERSITÉ, priority 2023, published 2026).

Broadly, the viability is a per cent measure of how many cells are alive, often set against a control.

Data set [1] has as its system DC2.4 cells. In words: Viability by live and dead assay (electro-bioconjugation or glyco-engineering). To be noted: glyco-engineering (comparative), concentration of 250 μM, 72 h.
For data set [2] the following is noted: Ruben et al., biomacromolecules, 2019, 20, 2726; cited from earlier work.

In turn, `CC(=O)OC[C@H]1OC(OC(C)=O)[C@@H](NC(=O)CN=[N+]=[N-])[C@@H](OC(C)=O)[C@@H]1OC(C)=O` (some centres unmarked) [Ac4ManNAz] registered a viability in data set [1] of 30%. For the same molecule, the “concentration that can be used” value in data set [2] is no more than 100 µM.
